Activity calls are given as the source filed them.
Legend:
[1] = blockers of HIV-1 envelope-mediated cell-cell fusion – cherry-pick, dose response (AID 652057); assay type: functional, cell-based
[2] = viability loss in CEM21 cells – cell-based, CellTiter-Glo luminescence, cherry-picked, cytotoxicity control for viral fusion inhibitor project, dose response (AID 652042); assay type: functional;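 further: potency for signal decrease meaning cytotoxicity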
[3] = blockers of HIV-1 ZM109 envelope-driven cell-cell fusion – HeLa effector, CEM target cells, luciferase, cherry-pick, dose response (AID 652058); assay type: functional, cell-based;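 further: luciferase signal from HIV-1 Env mediated cell-cell fusion of effector and target cells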
[4] = off-target signal loss in HeLa-CEM21 co-culture – HeLa F-luc CTL cells, cherry-picked, counter-screen for HIV-1 Env fusion inhibitor project, dose response (AID 652040); assay type: functional, cell-based;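 further: potency for signal decrease marking cytotoxic or nonspecific inhibition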
[5] = target: T1, Microphthalmia-associated transcription factor (Homo sapiens, UniProt O75030); assay: reducers of TRPM1 reporter luminescence, concentration series – cell-based, SK-MEL-5, cherry-picked, set 3, MITF inhibitor project, dose response (AID 493073); assay type: functional;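 further: SK-MEL-5 melanoma cells with luciferase driven by the MITF target TRPM1 promoter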
T1 sequence (O75030 whole entry): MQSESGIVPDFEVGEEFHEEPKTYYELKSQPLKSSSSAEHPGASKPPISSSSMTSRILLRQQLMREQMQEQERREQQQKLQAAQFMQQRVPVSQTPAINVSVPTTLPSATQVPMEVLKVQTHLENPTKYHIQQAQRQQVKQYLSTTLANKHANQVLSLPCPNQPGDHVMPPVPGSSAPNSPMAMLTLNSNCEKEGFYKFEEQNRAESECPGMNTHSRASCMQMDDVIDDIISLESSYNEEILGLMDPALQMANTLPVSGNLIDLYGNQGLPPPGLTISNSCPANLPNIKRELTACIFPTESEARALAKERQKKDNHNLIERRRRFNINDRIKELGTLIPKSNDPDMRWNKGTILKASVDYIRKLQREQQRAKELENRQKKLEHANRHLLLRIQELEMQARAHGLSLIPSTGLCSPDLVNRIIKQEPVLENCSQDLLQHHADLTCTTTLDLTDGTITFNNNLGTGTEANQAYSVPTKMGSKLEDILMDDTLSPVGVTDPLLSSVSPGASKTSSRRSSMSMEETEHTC

[6] = Fluorescence-based cell-based high throughput dose response assay for inhibitors of the interaction of nucleotide-binding oligomerization domain containing 2 (NOD2) and the receptor-interacting serine-threonine kinase 2 (RIPK2).; assay type: functional; conditions: Homo sapiens
[7] = A549 cell cytotoxicity, dose response, cytotoxicity control, plate reader, cherry-pick, antagonist series (AID 743412); assay type: functional, cell-based
[8] = toxicity toward HepG2 liver cells – cell-based, plate reader, cherry-pick, antagonist series, cytotoxicity control, dose response (AID 743416); assay type: functional
[9] = blockers of bursicon-stimulated LGR2 cAMP reporter – cell-based, HEK293, CRE-luciferase reporter, cherry pick, set 2, dose response (AID 743343); assay type: functional;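 further: transfected cells were stimulated with diluted bursicon conditioned medium after compound addition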
[10] = blockade of melanocortin 4 receptor signaling – cell-based, plate reader, cherry pick, counter-screen for LGR2 antagonist project, dose response (AID 743444); assay type: functional;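 further: transfected HEK 293 cells stimulated with alpha-MSH peptide; potency of inhibitors of the alpha-MSH evoked signal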
[11] = viability loss in HEK293 cells – cell-based, plate reader, cherry-picked samples, cytotoxicity control, dose response (AID 743446); assay type: functional
[12] = target: Nuclear receptor subfamily 5 group A member 2 (Homo sapiens, UniProt O00482); assay type: functional, cell-based;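 further: HEK293T cells transfected with LRH-1 and a StAR promoter luciferase reporter; potency for inhibitors that lower LRH-1 driven reporter light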
Steroidogenic factor 1 = Steroidogenic factor 1 (Homo sapiens, UniProt Q13285); assay: Counterscreen for inverse agonists of the liver receptor homolog-1 (LRH-1; NR5A2): Luminescence-based cell-based high throughput dose response assay to identify inverse agonists of the Steroidogenic Factor 1 Nuclear Receptor (SF1; NR5A1).; assay type: functional
[13] = nonselective StAR promoter luciferase inhibitors – cell-based, luminescence, luciferase reporter, counter-screen for LRH-1 inverse agonist project, dose response (AID 651969); assay type: functional
[14] = intracellular Trypanosoma cruzi inhibitors in host cells – cell-based, plate reader, cherry-pick samples, set 3, dose response (AID 651818); assay type: functional;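 further: compounds incubated with infected cells for about four days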
[15] = target: T2, Adenosylmethionine-8-amino-7-oxononanoate aminotransferase (Mycobacterium tuberculosis, UniProt P9WQ81); assay: Mycobacterium tuberculosis BioA enzyme inhibitor Measured in Biochemical System Using Plate Reader - 2163-02_Inhibitor_Dose_CherryPick_Activity.; assay type: functional, Mycobacterium tuberculosis UT205
T2 sequence (P9WQ81 whole entry): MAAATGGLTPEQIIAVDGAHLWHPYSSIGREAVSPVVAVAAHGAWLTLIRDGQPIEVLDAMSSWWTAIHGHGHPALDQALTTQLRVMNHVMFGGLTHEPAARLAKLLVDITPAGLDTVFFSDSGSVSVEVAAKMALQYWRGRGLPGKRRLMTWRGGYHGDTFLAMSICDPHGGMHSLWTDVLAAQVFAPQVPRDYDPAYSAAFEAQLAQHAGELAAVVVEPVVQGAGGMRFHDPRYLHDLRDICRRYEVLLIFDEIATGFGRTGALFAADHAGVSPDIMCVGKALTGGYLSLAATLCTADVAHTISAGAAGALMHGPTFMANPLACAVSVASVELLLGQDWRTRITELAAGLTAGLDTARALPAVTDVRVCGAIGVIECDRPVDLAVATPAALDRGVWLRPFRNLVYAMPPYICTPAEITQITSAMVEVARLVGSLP

cells = assay type: functional, cell-based
[16] = target: T3, Nuclear receptor subfamily 0 group B member 1 (Homo sapiens, UniProt P51843); assay type: functional, cell-based;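 further: HEK293T cells transfected with SF-1 and DAX-1 plus StAR promoter luciferase reporter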
T3 sequence (P51843 whole entry): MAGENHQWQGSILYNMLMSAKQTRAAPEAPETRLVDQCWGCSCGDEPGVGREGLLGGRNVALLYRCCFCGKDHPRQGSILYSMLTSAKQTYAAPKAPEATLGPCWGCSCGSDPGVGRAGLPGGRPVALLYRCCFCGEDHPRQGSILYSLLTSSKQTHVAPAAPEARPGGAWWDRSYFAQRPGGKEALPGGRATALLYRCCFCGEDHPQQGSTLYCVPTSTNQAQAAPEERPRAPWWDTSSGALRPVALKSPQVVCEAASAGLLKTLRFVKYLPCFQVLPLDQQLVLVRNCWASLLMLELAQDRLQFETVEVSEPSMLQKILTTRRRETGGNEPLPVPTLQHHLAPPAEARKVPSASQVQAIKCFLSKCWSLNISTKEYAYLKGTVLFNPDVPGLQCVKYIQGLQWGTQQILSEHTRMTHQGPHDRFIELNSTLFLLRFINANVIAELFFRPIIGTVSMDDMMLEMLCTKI

Paired box protein Pax-8 = Paired box protein Pax-8 (Homo sapiens, UniProt Q06710); assay: PAX8 transcriptional activity inhibition in RMG-I – RMG-I cells, luciferase, cherry-pick, dose response (AID 687027); assay type: functional, cell-based;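 further: luciferase reporter driven by Pax8 target thyroperoxidase promoter measured by SteadyGlo luminescence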
[17] = viability of PTEN-deleted HCT116 cells – cell-based, HCT116 PTEN knockout, dose response (AID 1047); assay type: functional;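 further: HCT116 colon tumor cells with PTEN knocked out; cells exposed to compound for 60 hours before readout; potency for loss of cell viability measured by luminescence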
[18] = viability of HCT116 lacking mutant beta-catenin – cell-based, human colon tumor, dose response (AID 1045); assay type: functional;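 further: HCT116 colon tumor cells with beta catenin knocked out; cells exposed to compound for 60 hours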
[19] = target: Glucose-6-phosphate 1-dehydrogenase (Homo sapiens, UniProt P11413); assay: inhibition of Homo sapiens G6PD, dose series – biochemical, fluorescence, selectivity assay for P. falciparum G6PD inhibitor project, dose response (AID 504792); assay type: functional
INS1 = assay: INS-1E survival protection against cytokine death – cell-based, luminescence, retest, dose response (AID 449756); assay type: functional; conditions: Rattus norvegicus;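 further: cell death triggered by IL-1 beta plus TNF-alpha plus IFN-gamma mixture; protective hits raise ATP signal compared with cytokine alone wells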

Chain of Paired box protein Pax-8 (Q06710 whole entry): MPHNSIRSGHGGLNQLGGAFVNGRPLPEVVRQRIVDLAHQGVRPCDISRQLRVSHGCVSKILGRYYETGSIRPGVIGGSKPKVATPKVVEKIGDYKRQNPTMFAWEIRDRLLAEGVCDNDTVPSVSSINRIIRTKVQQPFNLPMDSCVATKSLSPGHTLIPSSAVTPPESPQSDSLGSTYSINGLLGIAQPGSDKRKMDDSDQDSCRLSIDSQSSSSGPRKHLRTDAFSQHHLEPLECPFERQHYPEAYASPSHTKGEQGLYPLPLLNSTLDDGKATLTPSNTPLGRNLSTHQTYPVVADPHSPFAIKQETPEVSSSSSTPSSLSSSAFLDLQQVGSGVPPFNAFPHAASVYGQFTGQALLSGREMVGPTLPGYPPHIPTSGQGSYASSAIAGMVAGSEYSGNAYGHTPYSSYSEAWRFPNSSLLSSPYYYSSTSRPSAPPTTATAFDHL
Chain of Nuclear receptor subfamily 5 group A member 2 (O00482 whole entry): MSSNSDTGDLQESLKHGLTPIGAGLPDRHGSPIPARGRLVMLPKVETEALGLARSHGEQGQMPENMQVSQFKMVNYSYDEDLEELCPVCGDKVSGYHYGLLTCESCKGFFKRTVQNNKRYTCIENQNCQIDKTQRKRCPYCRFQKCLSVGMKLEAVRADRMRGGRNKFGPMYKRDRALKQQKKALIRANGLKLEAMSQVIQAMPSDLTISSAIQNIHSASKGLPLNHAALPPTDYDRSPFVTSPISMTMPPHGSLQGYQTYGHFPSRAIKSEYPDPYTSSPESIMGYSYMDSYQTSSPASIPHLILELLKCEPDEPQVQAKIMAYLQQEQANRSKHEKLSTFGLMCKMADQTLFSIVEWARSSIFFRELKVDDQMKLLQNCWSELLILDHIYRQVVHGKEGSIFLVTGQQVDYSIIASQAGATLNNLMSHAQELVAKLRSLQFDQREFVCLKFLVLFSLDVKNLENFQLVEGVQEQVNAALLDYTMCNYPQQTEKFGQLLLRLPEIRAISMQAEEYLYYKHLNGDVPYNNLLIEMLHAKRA
Chain of Glucose-6-phosphate 1-dehydrogenase (P11413 whole entry): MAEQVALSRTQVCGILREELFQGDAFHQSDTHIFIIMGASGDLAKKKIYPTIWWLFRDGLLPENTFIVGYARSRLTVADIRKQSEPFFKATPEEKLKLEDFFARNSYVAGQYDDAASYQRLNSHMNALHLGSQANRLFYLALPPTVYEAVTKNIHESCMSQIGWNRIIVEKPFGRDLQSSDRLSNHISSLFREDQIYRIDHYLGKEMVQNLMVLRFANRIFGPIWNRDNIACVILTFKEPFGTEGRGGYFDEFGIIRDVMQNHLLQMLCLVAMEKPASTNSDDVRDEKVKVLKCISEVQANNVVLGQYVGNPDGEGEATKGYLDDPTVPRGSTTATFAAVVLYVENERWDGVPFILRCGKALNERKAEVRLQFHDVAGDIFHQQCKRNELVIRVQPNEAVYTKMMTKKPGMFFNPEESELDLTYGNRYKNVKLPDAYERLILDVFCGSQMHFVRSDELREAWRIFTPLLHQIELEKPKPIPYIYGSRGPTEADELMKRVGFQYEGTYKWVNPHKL
Chain of Steroidogenic factor 1 (Q13285 whole entry): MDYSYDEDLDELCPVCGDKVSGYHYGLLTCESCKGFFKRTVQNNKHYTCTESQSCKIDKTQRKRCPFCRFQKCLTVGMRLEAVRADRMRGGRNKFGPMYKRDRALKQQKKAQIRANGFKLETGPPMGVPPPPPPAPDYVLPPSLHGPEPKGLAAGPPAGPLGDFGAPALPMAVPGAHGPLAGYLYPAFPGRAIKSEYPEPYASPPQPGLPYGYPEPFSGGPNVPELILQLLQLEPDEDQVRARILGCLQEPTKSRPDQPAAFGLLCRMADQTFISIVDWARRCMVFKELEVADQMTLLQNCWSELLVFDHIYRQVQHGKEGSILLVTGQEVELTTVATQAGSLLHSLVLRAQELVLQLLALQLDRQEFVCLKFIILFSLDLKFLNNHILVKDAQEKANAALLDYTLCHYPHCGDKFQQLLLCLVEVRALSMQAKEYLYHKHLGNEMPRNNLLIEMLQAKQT

Question: For C[C@H](O)[C@@H]1C(=O)N2CCc3c([nH]c4cccc(-c5ccccc5)c34)[C@@H]2C[C@@H]1N(C)C(=O)OCc1ccccc1, which AC50 [1] is on record?
Answer: Its AC50 is 5.22 µM (active).

Question: And the AC50 [2]?
Answer: The AC50 was 32.5 µM (active).

Question: What about the AC50 [3] of the same compound?
Answer: The AC50 was 3.65 µM (active).

Question: And the AC50 [4]?
Answer: Its AC50 is 3.94 µM (active).

Question: With Cc1cc(Br)ccc1NC(=O)CNC(=O)Cn1ncc(Cl)c(Cl)c1=O as the compound, how does the AC50 [5] read?
Answer: Its AC50 is 7.47 µM (active).

Question: And the IC50 [6]?
Answer: Its IC50 is 1.84 µM (active).

Question: And the AC50 [7]?
Answer: Its AC50 is 3.92 µM (active).

Question: What about the AC50 [8] of the same compound?
Answer: The AC50 was > 52 µM (inactive).

Question: And the AC50 [9]?
Answer: Its AC50 is 4.51 µM (active).

Question: What about the AC50 [10] of the same compound?
Answer: The AC50 was 5.41 µM (active).

Question: And the AC50 [11]?
Answer: Its AC50 is 4.54 µM (active).

Question: For COC(=O)c1ccc(NC(=O)COc2cccc(-n3cnnn3)c2)cc1, which IC50 [12] is on record?
Answer: The IC50 was 35.9 µM (inactive).

Question: What about the IC50 (Steroidogenic factor 1) of the same compound?
Answer: Its IC50 is 35.9 µM (inactive).

Question: And the IC50 [13]?
Answer: Its IC50 is 35.9 µM (inactive).

Question: With C[C@@H]1CN([C@@H](C)CO)C(=O)c2cccc(NC(=O)CCCCCC(=O)Nc3ccccc3N)c2O[C@H]1CN(C)CC1CCCCC1 as the compound, how does the AC50 [14] read?
Answer: The AC50 was 3.58 µM (active).

Question: With C[C@H](CO)N1C[C@H](C)[C@H](CN(C)Cc2ccc(C(=O)Nc3ccccc3N)cc2)Oc2ccc(NS(=O)(=O)c3ccc(Cl)cc3)cc2CC1=O as the compound, how does the AC50 [14] read?
Answer: Its AC50 is 1.91 µM (active).

Question: With CCOC(=O)c1c(SCCN2CCCC2)n(-c2ccccc2)c(=S)n(-c2ccccc2)c1=O as the compound, how does the IC50 [6] read?
Answer: Its IC50 is 1.09 µM (active).

Question: Which AC50 [15] does the source give for O=C(NC1CCCc2c1cnn2-c1cc(F)cc(F)c1)c1ccc[n+]([O-])c1 (configuration not stated) here?
Answer: Its AC50 is 4.29 µM (active).

Question: With C[C@@H]1CN([C@H](C)CO)C(=O)Cc2cc(NS(=O)(=O)c3ccc(Cl)cc3)ccc2O[C@@H]1CN(C)S(=O)(=O)c1ccc(F)cc1 as the compound, how does the AC50 [14] read?
Answer: Its AC50 is 7.57 µM (active).

Question: For COc1ccc(-c2cnc3c(NC=O)cc(-c4ccccc4OC)cn23)cc1OC, which IC50 (cells) is on record?
Answer: Its IC50 is > 67.6 µM (inactive).

Question: And the IC50 [16]?
Answer: Its IC50 is > 67.6 µM (inactive).

Question: What about the AC50 (Paired box protein Pax-8) of the same compound?
Answer: Its AC50 is 1.55 µM (active).

Question: Which EC50 [17] does the source give for CCC(CO)N1C(C)=CC(=Cc2sc3ccccc3[n+]2Cc2ccccc2)C=C1C (configuration not stated) here?
Answer: Its EC50 is 1.19 µM (active).

Question: What about the EC50 [18] of the same compound?
Answer: Its EC50 is 0.775 µM (active).

Question: What about the IC50 [19] of the same compound?
Answer: Its IC50 is > 80 µM (inactive).

Question: What about the AC50 (INS1) of the same compound?
Answer: Its AC50 is 0.613 µM (active).

Question: And the AC50 [15]?
Answer: The AC50 was 2.73 µM (active).

From ChEMBL document CHEMBL1201862, “PubChem BioAssay data set” (2004)
